Activity calls are given as the source filed them.
Tests used:
Assay type in all cases: functional
[1] = biological target: Hepatocyte growth factor receptor (Homo sapiens, UniProt P08581);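 further: kinase panel profiling across the kinome, with MET as the panel member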
Aurora kinase A = biological target: T1, Aurora kinase A (Homo sapiens, UniProt O14965);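 further: value from the Navigating the Kinome kinase panel profiling, panel entry STK6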
T1 sequence (O14965 whole entry): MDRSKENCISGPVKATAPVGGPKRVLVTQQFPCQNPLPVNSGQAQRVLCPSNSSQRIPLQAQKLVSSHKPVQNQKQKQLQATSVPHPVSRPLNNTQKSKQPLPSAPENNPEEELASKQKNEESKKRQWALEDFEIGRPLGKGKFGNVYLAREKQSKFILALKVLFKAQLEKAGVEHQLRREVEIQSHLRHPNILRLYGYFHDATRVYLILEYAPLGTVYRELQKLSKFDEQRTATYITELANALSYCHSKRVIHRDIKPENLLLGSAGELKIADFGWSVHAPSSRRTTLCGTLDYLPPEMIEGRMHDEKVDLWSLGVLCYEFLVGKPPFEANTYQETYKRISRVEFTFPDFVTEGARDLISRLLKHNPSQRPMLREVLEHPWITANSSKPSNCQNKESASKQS

[2] = biological target: T2, Tyrosine-protein kinase receptor TYRO3 (Homo sapiens, UniProt Q06418);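 further: TYRO3 value obtained as one member of a kinome-wide profiling panel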
T2 sequence (Q06418 whole entry): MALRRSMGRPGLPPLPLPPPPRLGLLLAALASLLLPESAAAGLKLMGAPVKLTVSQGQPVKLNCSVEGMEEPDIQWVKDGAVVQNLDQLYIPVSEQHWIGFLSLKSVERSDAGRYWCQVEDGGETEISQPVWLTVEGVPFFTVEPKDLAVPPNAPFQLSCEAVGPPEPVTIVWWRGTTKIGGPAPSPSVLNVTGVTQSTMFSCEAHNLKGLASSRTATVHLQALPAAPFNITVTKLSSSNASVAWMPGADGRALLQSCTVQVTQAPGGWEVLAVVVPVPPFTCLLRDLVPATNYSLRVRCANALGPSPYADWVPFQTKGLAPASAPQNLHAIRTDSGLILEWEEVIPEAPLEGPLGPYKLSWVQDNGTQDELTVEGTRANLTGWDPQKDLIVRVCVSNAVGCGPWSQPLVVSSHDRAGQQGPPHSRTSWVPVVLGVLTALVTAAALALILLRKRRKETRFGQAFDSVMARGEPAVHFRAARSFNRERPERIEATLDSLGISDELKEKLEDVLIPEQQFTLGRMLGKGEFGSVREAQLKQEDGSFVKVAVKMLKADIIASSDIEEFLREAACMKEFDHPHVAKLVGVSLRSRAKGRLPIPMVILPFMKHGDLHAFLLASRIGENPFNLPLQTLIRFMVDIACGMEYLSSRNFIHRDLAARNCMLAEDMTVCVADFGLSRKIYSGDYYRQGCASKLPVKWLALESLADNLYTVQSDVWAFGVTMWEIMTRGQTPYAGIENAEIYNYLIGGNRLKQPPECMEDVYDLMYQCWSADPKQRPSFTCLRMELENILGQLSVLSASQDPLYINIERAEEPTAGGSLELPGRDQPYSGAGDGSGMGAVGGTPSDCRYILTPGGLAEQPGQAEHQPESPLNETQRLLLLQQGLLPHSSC

[3] = biological target: cAMP-dependent protein kinase catalytic subunit alpha (Homo sapiens, UniProt P17612)
[4] = biological target: T3, Serine/threonine-protein kinase Nek2 (Homo sapiens, UniProt P51955)
T3 sequence (P51955 whole entry): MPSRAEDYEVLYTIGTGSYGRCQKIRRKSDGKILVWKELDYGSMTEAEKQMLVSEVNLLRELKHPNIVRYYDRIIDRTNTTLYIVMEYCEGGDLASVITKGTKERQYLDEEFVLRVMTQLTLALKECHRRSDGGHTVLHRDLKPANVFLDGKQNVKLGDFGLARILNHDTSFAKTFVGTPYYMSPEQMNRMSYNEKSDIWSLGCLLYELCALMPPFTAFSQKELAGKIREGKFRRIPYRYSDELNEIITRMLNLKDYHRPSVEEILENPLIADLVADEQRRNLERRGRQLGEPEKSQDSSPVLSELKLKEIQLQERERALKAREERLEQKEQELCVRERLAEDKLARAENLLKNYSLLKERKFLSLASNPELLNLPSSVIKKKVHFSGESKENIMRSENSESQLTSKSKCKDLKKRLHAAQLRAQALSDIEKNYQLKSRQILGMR

[5] = biological target: Dual specificity mitogen-activated protein kinase kinase 1 (Homo sapiens, UniProt Q02750); assay: Navigating the Kinome. Panel member name: MAP2K1
Dual specificity mitogen-activated protein kinase kinase 1, sequence (Q02750 whole entry): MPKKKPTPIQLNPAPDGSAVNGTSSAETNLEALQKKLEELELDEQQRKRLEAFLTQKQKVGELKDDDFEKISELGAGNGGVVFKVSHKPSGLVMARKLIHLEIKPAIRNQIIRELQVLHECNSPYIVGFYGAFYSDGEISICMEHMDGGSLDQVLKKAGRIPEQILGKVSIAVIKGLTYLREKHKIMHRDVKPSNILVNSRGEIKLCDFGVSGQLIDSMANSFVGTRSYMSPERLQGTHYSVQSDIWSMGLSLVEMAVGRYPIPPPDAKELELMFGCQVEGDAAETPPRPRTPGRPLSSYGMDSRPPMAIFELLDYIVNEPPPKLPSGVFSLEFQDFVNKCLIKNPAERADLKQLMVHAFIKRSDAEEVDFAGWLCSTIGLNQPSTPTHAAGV

Hepatocyte growth factor receptor, sequence (P08581 whole entry): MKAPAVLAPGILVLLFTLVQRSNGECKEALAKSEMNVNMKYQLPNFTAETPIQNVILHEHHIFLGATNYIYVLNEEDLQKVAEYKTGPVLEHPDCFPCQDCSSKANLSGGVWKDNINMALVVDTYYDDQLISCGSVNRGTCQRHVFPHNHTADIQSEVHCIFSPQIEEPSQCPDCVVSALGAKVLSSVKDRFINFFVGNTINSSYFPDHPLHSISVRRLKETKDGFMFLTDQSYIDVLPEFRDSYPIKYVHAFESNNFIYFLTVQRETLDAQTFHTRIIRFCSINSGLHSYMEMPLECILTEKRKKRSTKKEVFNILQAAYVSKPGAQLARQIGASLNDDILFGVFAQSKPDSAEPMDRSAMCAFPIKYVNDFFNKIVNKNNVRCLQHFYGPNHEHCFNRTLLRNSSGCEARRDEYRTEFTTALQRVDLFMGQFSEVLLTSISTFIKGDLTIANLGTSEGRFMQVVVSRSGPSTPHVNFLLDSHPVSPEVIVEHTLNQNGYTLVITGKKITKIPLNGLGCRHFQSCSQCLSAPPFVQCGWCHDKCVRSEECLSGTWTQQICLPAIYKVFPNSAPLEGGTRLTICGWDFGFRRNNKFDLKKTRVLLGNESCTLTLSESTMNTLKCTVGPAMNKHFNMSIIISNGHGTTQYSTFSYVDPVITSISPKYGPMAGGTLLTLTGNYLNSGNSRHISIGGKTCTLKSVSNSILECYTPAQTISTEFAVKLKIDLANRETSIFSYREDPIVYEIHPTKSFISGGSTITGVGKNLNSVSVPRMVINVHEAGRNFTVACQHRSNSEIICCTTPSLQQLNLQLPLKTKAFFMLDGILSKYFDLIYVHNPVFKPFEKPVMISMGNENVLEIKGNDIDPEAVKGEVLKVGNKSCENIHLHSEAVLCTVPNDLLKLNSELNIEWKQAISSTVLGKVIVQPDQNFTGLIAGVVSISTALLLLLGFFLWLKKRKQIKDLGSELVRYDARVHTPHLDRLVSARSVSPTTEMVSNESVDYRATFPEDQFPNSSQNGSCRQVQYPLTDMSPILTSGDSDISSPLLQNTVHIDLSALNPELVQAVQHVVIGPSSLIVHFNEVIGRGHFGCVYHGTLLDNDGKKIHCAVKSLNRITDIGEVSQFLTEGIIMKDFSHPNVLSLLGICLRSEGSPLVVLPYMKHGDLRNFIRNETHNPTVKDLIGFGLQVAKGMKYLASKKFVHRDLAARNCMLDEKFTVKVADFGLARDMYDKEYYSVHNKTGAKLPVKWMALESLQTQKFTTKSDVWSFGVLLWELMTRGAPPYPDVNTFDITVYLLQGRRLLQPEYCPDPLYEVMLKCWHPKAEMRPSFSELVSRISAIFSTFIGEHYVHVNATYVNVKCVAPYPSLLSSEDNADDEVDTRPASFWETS

Row | Ki [1] | Ki (Aurora kinase A) | Ki [2] | Ki [3] | Ki [4] | Ki [5] | SMILES
1 | 316 nM (active) | 251 nM (active) | 25.1 nM (active) | 1.26 nM (active) | 1260 nM (active) | 316 nM (active) | NC(COc1cncc(-c2ccc3c(c2)C(=Cc2ccc[nH]2)C(=O)N3)c1)Cc1ccccc1 (stereo not drawn)
2 | 2510 nM (active) | > 1580 nM (inactive) | 2000 nM (active) | > 1260 nM (inactive) | > 3160 nM (inactive) | 1260 nM (active) | O=C1Nc2cc(-c3ccc(O)cc3)ccc2C1=Cc1ccc[nH]1
3 | 25100 nM (active) | 20000 nM (active) | 20000 nM (active) | > 50100 nM (inactive) | 39800 nM (active) | 79400 nM (active) | O=C1Cc2cc(-c3ccccc3)cnc2N1

— ChEMBL document CHEMBL1201862, “PubChem BioAssay data set” (2004)
